Reference: US7122526B2, “Indolocarbazole anticancer agents and methods of using same” (Nanosphere, Inc., priority 2000, dated 2006)

What was measured:
Human Topoisomerase I = biological target: T1, Human Topoisomerase I (Homo sapiens, UniProt P11387); test: Topoisomerase I assay (pHOT1 supercoiled DNA, agarose gel); format: biochemical; details: supercoiled DNA band density, 37° C., 30 minutes; read-out: Poisoning of Human Topoisomerase I IC50
T1 sequence (P11387 1-765): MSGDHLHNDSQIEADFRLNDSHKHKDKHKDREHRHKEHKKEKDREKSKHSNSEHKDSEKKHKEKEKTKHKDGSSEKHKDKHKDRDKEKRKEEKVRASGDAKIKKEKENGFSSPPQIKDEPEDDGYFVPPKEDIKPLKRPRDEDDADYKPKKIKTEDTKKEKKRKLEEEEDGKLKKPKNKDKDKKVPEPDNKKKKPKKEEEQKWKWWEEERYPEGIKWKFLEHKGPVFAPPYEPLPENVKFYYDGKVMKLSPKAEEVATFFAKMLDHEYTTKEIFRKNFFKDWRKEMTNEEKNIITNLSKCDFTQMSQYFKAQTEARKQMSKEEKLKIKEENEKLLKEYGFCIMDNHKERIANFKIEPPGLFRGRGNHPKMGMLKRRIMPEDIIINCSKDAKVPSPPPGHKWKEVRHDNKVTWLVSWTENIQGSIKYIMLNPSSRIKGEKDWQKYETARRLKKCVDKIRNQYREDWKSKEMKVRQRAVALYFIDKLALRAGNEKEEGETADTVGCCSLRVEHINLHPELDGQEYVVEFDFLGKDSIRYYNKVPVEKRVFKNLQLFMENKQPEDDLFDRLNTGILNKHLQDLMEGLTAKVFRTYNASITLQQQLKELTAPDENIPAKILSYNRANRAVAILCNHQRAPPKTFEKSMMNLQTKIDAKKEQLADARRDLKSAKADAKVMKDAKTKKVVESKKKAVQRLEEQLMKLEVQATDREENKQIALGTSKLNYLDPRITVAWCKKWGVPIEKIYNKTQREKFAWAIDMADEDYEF
Experimental: a.) Topoisomerase I assay. Reaction buffer (10.3 μL H2O, 2.0 μL 10×buffer, 1.5 μL […] MgCl2, and 3.2 μL 500 mM KCl) was prepared and kept on ice. 10×Buffer was prepared by mixing 2 mL 2M Tris pH 7.5, 15.3 μL 10% DTT, 100 μL 0.5 M EDTA, 75 μL 20 mg/mL BSA, and […]. Test poisons were prepared in DMSO at such concentrations that the final incubation mixture was 5% DMSO. DNA mix was prepared by dissolving […] of pHOT1 DNA solution (0.25 μg/μL) with 715 μL reaction buffer. Topo I mix was prepared by mixing 14 μL of Topo I solution (2 units/μL) with 266 μL of reaction buffer. Proteinase K solution was prepared fresh as 10 mg/mL in 1% SDS. Gel loading buffer was prepared by dissolving 1 mg bromophenol blue in 100 μL H2O, then adding 900 μL 50% glycerol.
The assay was conducted as follows. DNA mix (14 μL) was added to sample tubes containing 1 μL of test poison solution and stored on ice. Next, 5 μL of Topo I mix was added, the solution was mixed with the pipettor, then incubated with gentle rocking in a 37° C. water bath for 30 minutes. The reactions were stopped via addition of 2 μL of proteinase K solution, and incubation was continued for another 30 minutes, then placed on ice. 2.2 μL of 5 M NaCl and 75 μL of EtOH were added to the tubes, the tubes were vortexed briefly, then placed on dry ice for 1 hour. The DNA was pelleted by centrifugation at 16,000×g for 10 minutes at 4° C. EtOH was removed from each tube using a gel loading pipette tip, and the DNA pellet was resuspended in 18 μL of reaction buffer and 2 μL of gel loading buffer. The samples were vortexed briefly, then spun for 15 seconds in a micro-centrifuge to force all the liquid to the bottom of the tubes. The samples were loaded onto a 1% agarose gel made with 1×TBE containing 2 μg/mL chloroquine. The gels were run at 35 V for 15 hours in 1×TBE. Gels were stained with 0.5 μg/mL ethidium bromide in 1×TBE for 1 hour, then destained for 30 minutes in H2O. Gels were photographed with a digital camera, and the digitized images analyzed using NIH software. IC50 values were determined by comparing supercoiled DNA band density (negative controls containing 5 μL reaction buffer in place of Topo I mix) with the supercoiled DNA bands remaining in the test samples.

HT-29 Colon = test: In vitro cytotoxicity assay (MTS), HT-29; format: cell-based; details: HT-29 human colon tumor cell line, MTS assay 3–5 days; read-out: Growth-Inhibitory Activity IC50 HT-29 Colon
Experimental: (§1) b.) In vitro Cytotoxicity Assay. 96-Well tissue culture cluster plates were seeded with 100 μL of cell suspension (5×10^3 cells/mL), and incubated overnight for cell anchorage and acclimation. Cells were propagated under sterile conditions in RPMI 1640 or DMEM with 10% fetal bovine serum, 2 mM L-glutamine, and sodium bicarbonate (complete medium), and incubated at 37° C. The test compounds were prepared in DMSO and then diluted in complete media. A range of eight concentrations was used for each test drug to establish cytotoxicity, with eight replicates for each concentration. All dosing was conducted using a Biomek 2000 robotic liquid handler. The plates were incubated at 37° C. with 5% CO2 and 95% relative humidity. The data were analyzed for cytotoxicity using the MTS assay 3–5 days (depending upon the growth rate of the cell lines) after commencement of treatment.
(§2) c.) MTS Assay. A solution of 40 μL of MTS/PES solution (purchased from Promega Corporation) was added to each well, and incubated for one to four hours. The absorbance of formazan in each monolayer was measured at 490 nm on a Coulter microplate reader. The data were processed in a spreadsheet program to provide a dose-response curve, allowing determination of the IC50.

DU-145 Prostate = test: In vitro cytotoxicity assay (MTS), DU-145; format: cell-based; details: DU-145 human prostate tumor cell line, MTS assay 3–5 days; read-out: Growth-Inhibitory Activity IC50 DU-145 Prostate
Experimental: as §1, §2

OVCAR-3 Ovarian = test: In vitro cytotoxicity assay (MTS), OVCAR-3; format: cell-based; details: OVCAR-3 human ovarian tumor cell line, MTS assay 3–5 days; read-out: Growth-Inhibitory Activity IC50 OVCAR-3 Ovarian
Experimental: as §1, §2

| SMILES | IC50 (Human Topoisomerase I) | IC50 (HT-29 Colon) | IC50 (DU-145 Prostate) | IC50 (OVCAR-3 Ovarian) |
| --- | --- | --- | --- | --- |
| O=C1NC(=O)c2c1c1c3cc(O)ccc3[nH]c1c1c2c2cc3c(cc2n1[C@@H]1O[C@H](CO)[C@@H](O)[C@H](O)[C@H]1O)OCO3 [IIb, 2,3-methylenedioxy-9-hydroxy-13-(β-D-glucopyranosyl)-6,7,12,13-tetrahydroindolo[2,3-a]pyrrolo[3,4-c]carbazole-5,7-dione] | > 400000 nM | – | – | – |
| O=C1NC(=O)c2c1c1c3cc4c(cc3[nH]c1c1c2c2cc(O)ccc2n1[C@@H]1O[C@H](CO)[C@@H](O)[C@H](O)[C@H]1O)OCO4 [Ib, 2,3-methylenedioxy-9-hydroxy-12-(β-D-glucopyranosyl)-6,7,12,13-tetrahydroindolo[2,3-a]pyrrolo[3,4-c]carbazole-5,7-dione] | 3600 nM | > 10000 nM | 460 nM | < 10 nM |
| O=C1NC(=O)c2c1c1c3cc4c(cc3[nH]c1c1c2c2cc(O)ccc2n1[C@@H]1O[C@H](CO)[C@@H](O)[C@H](O)[C@H]1O)OCCO4 [Ia, 2,3-ethylenedioxy-9-hydroxy-12-(β-D-glucopyranosyl)-6,7,12,13-tetrahydroindolo[2,3-a]pyrrolo[3,4-c]carbazole-5,7-dione] | 5400 nM | > 10000 nM | 845 nM | < 10 nM |
| O=C1c2c(c3c4cc(O)ccc4n(C4OC(CO)C(O)C(O)C4O)c3c3[nH]c4cc5c(cc4c23)OCCO5)C(=O)N1CO [compound 9, 2,3-ethylenedioxy-6-hydroxymethyl-9-hydroxy-12-(β-D-glucopyranosyl)-6,7,12,13-tetrahydroindolo[2,3-a]pyrrolo[3,4c]carbazole-5,7-dione] | 3900 nM | > 10000 nM | 718 nM | < 10 nM |
| O=C1NC(=O)c2c1c1c3cc(O)ccc3[nH]c1c1c2c2cc3c(cc2n1[C@@H]1O[C@H](CO)[C@@H](O)[C@H](O)[C@H]1O)OCCO3 [IIa, 2,3-ethylenedioxy-9-hydroxy-13-(β-D-glucopyranosyl)-6,7,12,13-tetrahydroindolo[2,3-a]pyrrolo[3,4-c]carbazole-5,7-dione] | > 400000 nM | – | – | – |
| O=C1c2c(c3c4cc(O)ccc4n([C@@H]4O[C@H](CO)[C@@H](O)[C@H](O)[C@H]4O)c3c3[nH]c4cc5c(cc4c23)OCO5)C(=O)N1CO [compound 16, 2,3-methylenedioxy-6-hydroxymethyl-9-hydroxy-12-(β-D-glucopyranosyl)-6,7,12,13-tetrahydroindolo[2,3-a]pyrrolo[3,4-c]carbazole-5,7-dione] | 3600 nM | > 10000 nM | 549 nM | < 10 nM |
| CC1(C)Oc2cc3[nH]c4c(c5c(c6c7cc(O)ccc7n(C7OC(CO)C(O)C(O)C7O)c46)C(=O)N(CO)C5=O)c3cc2O1 [compound 23, 2,3-isopropylenedioxy-6-hydroxymethyl-9-hydroxy-12-(β-D-glucopyranosyl)-6,7,12,13-tetrahydroindolo[2,3-a]pyrrolo[3,4-c]carbazole-5,7-dione] | 130000 nM | > 10000 nM | 3520 nM | 43 nM |
| CC1(C)Oc2cc3[nH]c4c(c5c(c6c7cc(O)ccc7n(C7OC(CO)C(O)C(O)C7O)c46)C(=O)NC5=O)c3cc2O1 [Ic, 2,3-isopropylenedioxy-9-hydroxy-12-(β-D-glucopyranosyl)-6,7,12,13-tetrahydroindolo[2,3-a]pyrrolo[3,4-c]carbazole-5,7-dione] | 8100 nM | > 10000 nM | 2360 nM | 36 nM |
| CC[C@@]1(O)C(=O)OCc2c1cc1n(c2=O)Cc2cc3c(CN(C)C)c(O)ccc3nc2-1 [Topotecan, reference compound] | – | 533 nM | 30 nM | < 3 nM |
| O=C1NC(=O)c2c1c1c3cc(O)ccc3[nH]c1c1c2c2cc(O)ccc2n1[C@@H]1O[C@H](CO)[C@@H](O)[C@H](O)[C@H]1O [ALS-007, 3,9-dihydroxy-12-(β-D-glucopyranosyl)-6,7,12,13-tetrahydroindolo[2,3-a]pyrrolo[3,4-c]carbazole-5,7-dione, reference compound] | 20900 nM | 9960 nM | 338 nM | < 10 nM |
